The test system of one experiment is SK-OV-3. The experiment is described as follows: Anticancer activity was determined by the inhibition of colony formation in liquid culture of SK-OV-3 ovarian cancer cells up to the concentration 31.6 ug/mL; NI means No inhibition. The note with it: Homo sapiens. Format: functional, cell-based.
Another experiment relates to L1210. In words: Anticancer activity was determined by the inhibition of colony formation in liquid culture of L-1210 leukemia cells up to the concentration 31.6 ug/mL; NI means No inhibition. The class given is functional, cell-based. The note with it: Mus musculus.
The species named for a further experiment is Homo sapiens. In words: Anticancer activity was determined by the inhibition of colony formation in liquid culture of KB human epidermoid carcinoma cells up to the concentration 31.6 ug/mL; NI means No inhibition. Format: functional.
Another experiment relates to LNCaP. The experiment is described as follows: Anticancer activity was determined by the inhibition of colony formation in liquid culture of up to the concentration 31.6 ug/mL; NI means No inhibition. Format: functional, cell-based. The note with it: Homo sapiens.
For the next experiment, the system named is P388. The experiment is described as follows: Anticancer activity against lymphocytic leukemia P388 cells was determined. Format: functional. Particulars: Mus musculus, read-out: ED50 (the source's name).

Values after ≈ are worked out from the molar mass of the structure shown. Active and inactive are the calls of the source. The calls are words filed in the database; no cut-off is given here. Square brackets hold non-standard residues; d marks the D form. Peptide text beside a SMILES is read from it. * marks the point of attachment. X1 = COC1=CC(=O)N(C(=O)[C@@H](O*)C(C)C)[C@H]1Cc1ccccc1; NMe2Val = CC(C)[C@@H](C(=O)*)N(C)C; NMeV = CN[C@H](C(=O)O)C(C)C

As for `CC(=O)N(CC(=O)N(CC(=O)N1CCC[C@H]1C(=O)N1CCC[C@H]1C(=O)N(CC(=O)N(CC(=O)N(C(C)C)C(C)C)C(C)C)C(C)C)C(C)C)Cc1ccccc1`, the result with SK-OV-3, in the experiment with L1210, in the experiment listed under Homo sapiens and with LNCaP was inactive.
In the case of `CC(=O)N(CC(=O)N(CC(=O)N1CCCC1C(=O)N1CCC[C@H]1C(=O)N(CC(=O)N(CC(=O)N(C(C)C)C(C)C)C(C)C)C(C)C)C(C)C)Cc1ccccc1` (single isomer, unassigned), the result with SK-OV-3, in the experiment on L1210, in the experiment listed under Homo sapiens and in the experiment on LNCaP was inactive.
Regarding `CC(=O)N(CC(=O)N(CC(=O)N1CCC[C@@H]1C(=O)N1CCC[C@@H]1C(=O)N(CC(=O)N(CC(=O)N(C(C)C)C(C)C)C(C)C)C(C)C)C(C)C)Cc1ccccc1` (single isomer, unassigned), the result with SK-OV-3, with L1210, in the experiment filed under Homo sapiens and with LNCaP was inactive.
As for `CC(=O)N(CC(=O)N(CC(=O)N1CCC[C@@H]1C(=O)N1CCC[C@@H]1C(=O)N(CC(=O)N(CC(=O)N(C(C)C)C(C)C)C(C)C)Cc1ccccc1)C(C)C)Cc1ccccc1` (single isomer, unassigned), the result with SK-OV-3, in the experiment with L1210, in the experiment filed under Homo sapiens and with LNCaP was inactive.
Turning to `CC(=O)N(CC(=O)N(CC(=O)N1CCC[C@@H]1C(=O)N1CCC[C@@H]1C(=O)N(CC(=O)N(CC(=O)O)C(C)C)C(C)C)C(C)C)Cc1ccccc1` (single isomer, unassigned), the result in the experiment with SK-OV-3, in the experiment on L1210, in the experiment filed under Homo sapiens and in the experiment on LNCaP was inactive.
With `CC(=O)N(CC(=O)N(CC(=O)N1CCC[C@H]1C(=O)N1CCCC1C(=O)N(CC(=O)N(CC(=O)N(C(C)C)C(C)C)C(C)C)C(C)C)C(C)C)Cc1ccccc1` (single isomer, unassigned), the result with SK-OV-3, in the experiment with L1210, in the experiment filed under Homo sapiens and in the experiment with LNCaP was inactive.
Consider `CC(C)N(CC(=O)N(C(C)C)C(C)C)C(=O)CN(C(=O)[C@H]1CCCN1C(=O)[C@H]1CCCN1C(=O)OCc1ccccc1)C(C)C` (single isomer, unassigned), for which the result in the experiment with SK-OV-3, in the experiment with L1210, in the experiment listed under Homo sapiens and in the experiment on LNCaP was inactive.
On to `CC(C)N(CC(=O)O)C(=O)CN(C(=O)[C@H]1CCCN1C(=O)[C@H]1CCCN1C(=O)CN(C(=O)CNCc1ccccc1)C(C)C)C(C)C` (single isomer, unassigned), for which the result in the experiment with SK-OV-3, in the experiment on L1210, in the experiment filed under Homo sapiens and in the experiment on LNCaP was inactive.
For the compound `COC1=CC(=O)N(C(=O)[C@@H](OC(=O)[C@@H]2CCCN2C(=O)[C@@H]2CCCN2C(=O)[C@H](C(C)C)N(C)C(=O)[C@@H](NC(=O)[C@H](C(C)C)N(C)C)C(C)C)C(C)C)[C@H]1Cc1ccccc1` [DOLASTATIN 15] (NMe2Val-V[NMeV]PP-X1), the EC50 in the experiment with P388 was 2.4 ng/mL (≈ 2.87 nM).
Same read-out and setting: the same measure for `CC[C@H](C)[C@@H]([C@@H](CC(=O)N1CCC[C@H]1[C@H](OC)[C@@H](C)C(=O)N[C@@H](Cc1ccccc1)c1nccs1)OC)N(C)C(=O)[C@@H](NC(=O)[C@H](C(C)C)N(C)C)C(C)C` [DOLASTATIN-10]: 0.1 ng/mL (≈ 0.127 nM).

These data come from ChEMBL document CHEMBL1131558, “Synthesis of Dolastatin 15 mimetic peptoids” (1998).
